These are literature values, as cited in patent publication US20100119576A1, “USE OF ONE OR MORE OF THE ELEMENTS FROM THE GROUP YTTRIUM, NEODYMIUM AND ZIRCONIUM, AND PHARMACEUTICAL COMPOSITIONS WHICH CONTAIN THOSE ELEMENTS” (BIOTRONIK VI PATENT AG, priority 2002, published 2010).

The subject of this data set is Klebsiella pneumoniae strain 204 and K9. Particulars: 142 mM Y(OH)3.

Regarding `[OH-].[OH-].[OH-].[Y+3]` [Y(OH)3], the “proliferation of K. pneumoniae” value is reported as “increased proliferation”.
